Results as given in patent publication US8697730B2, “5-lipoxygenase activating protein (FLAP) inhibitor” (Panmira Pharmaceuticals, LLC, priority 2007, dated 2014).
Like-named read-outs stand apart in the source and are kept apart here.

Tests used:
[1] = pH solubility profile; type: physicochemical; details: 25 °C, thermodynamic from solid
[2] = Solubility in organic solvents; type: physicochemical; details: for solubility: 25 °C, Form C, read-out: Solubility, mg/mL at 25° C.
[3] = in vivo; design: species or system female Beagle dogs; details: dog
Description: For comparison, an IV formulation was also tested. Table 18 summarizes the results of the experiments of administration of the various oral formulations to female beagle dogs.

[4] = Phase 1 study in healthy human volunteers, plasma pharmacokinetics; type: in vivo; details: for AUC(0-t): read-out: AUC0-24 (hr * mM) AVE ± SD; for Tmax: read-out: Tmax (hr) AVE ± SD; for half-life: read-out: t1/2 (hr) AVE ± SD (converted)
Description: The study is divided into two phases (Single and Multiple Dose Phases).
One cohort in the Multiple Dose Phase receives twice daily dosing.
Placebo solution to match. The finished aqueous solution is prepared in the clinical study site pharmacy within 24 hours of dosing. The study drug is stored at room temperature between 15-30° C. (59-86° F.) and protected from light.
Route of Administration: All doses are administered orally with approximately 100 mL of water rinse. Subjects are fasted for at least 8 hours prior to dosing and for 2 hours after dosing.
Obtain pre-dose fasting blood samples for hematology determinations. Obtain pre-dose fasting blood samples for serum chemistry determinations. Obtain pre-dose blood samples (5 mL EDTA and 4 mL heparinized) for baseline PK and LTB4. Collect ‘spot’ urine prior to study drug administration for baseline (pre-dose) LTE4. Administer study drug. […] Collect blood samples (2 mL heparinized) for LTB4 at 0.5, 1, 2, 3, 4, 6, 8, and 12 hours. Collect urine for LTE4 for the following separate intervals: 0-3, 3-6, 6-9, and 9-12 hours. For twice daily dosing group (if conducted): administer study drug 12 hours±30 minutes after prior dose, preceded by ≧2 hours fast. […]

[5] = tested on: whole blood ionophore-stimulated leukotriene LTB4; assay: Phase 1 study, whole blood ionophore-stimulated LTB4; type: in vivo, human
Description: (§1) Pharmacodynamics: Whole blood ionophore-stimulated leukotriene LTB4 and urinary LTE4 production are assayed by ELISA and mass spectrometry, respectively.
(§2) Obtain pre-dose fasting blood samples for hematology determinations. Obtain pre-dose fasting blood samples for serum chemistry determinations. Obtain pre-dose blood samples (5 mL EDTA and 4 mL heparinized) for baseline PK and LTB4. Collect ‘spot’ urine prior to study drug administration for baseline (pre-dose) LTE4. Administer study drug. […] Collect blood samples (2 mL heparinized) for LTB4 at 0.5, 1, 2, 3, 4, 6, 8, and 12 hours. Collect urine for LTE4 for the following separate intervals: 0-3, 3-6, 6-9, and 9-12 hours. For twice daily dosing group (if conducted): administer study drug 12 hours±30 minutes after prior dose, preceded by ≧2 hours fast.
(§3) Obtain pre-dose fasting blood samples for hematology determinations. Obtain pre-dose fasting blood samples for serum chemistry determinations. […] Collect blood samples (2 mL heparinized) for LTB4 at 24 hours after the first study drug administration; 4 mL blood will be collected at this time point in the Single Dose Phase. Collect ‘spot’ urine sample for LTE4 at 24 and 36 hours after first study drug administration.
(§4) Obtain pre-dose blood samples (5 mL EDTA and 2 mL heparinized) for PK and LTB4. Collect pre-dose urine for LTE4. Administer study drug (last dose of drug). […] Collect blood samples (2 mL heparinized) for LTB4 at 0.5, 1, 2, 3, 4, 6, 8, and 12 hours. Collect urine for LTE4 for the following separate intervals: 0-3, 3-6, 6-9, and 9-12 hours after study drug administration.
(§5) Record vital signs 24 hours after Day 11 study drug administration. […] Collect blood sample (4 mL heparinized) for LTB4 at 24 hours after Day 11 study drug administration. Collect ‘spot’ urine sample for LTE4 at 24 hours after Day 11 study drug administration.
(§6) Whole blood ionophore-stimulated leukotriene LTB4 and urinary LTE4 production were assayed by ELISA and mass spectrometry, respectively.

[6] = tested on: urinary LTE4 production; assay: Phase 1 study, urinary LTE4; type: in vivo, human
Description: as §1, §2, §3, §4, §5, §6

[7] = molecular target: CYP3A4 (Homo sapiens, UniProt P08684); assay: biochemical
[8] = molecular target: CYP2C19 (Homo sapiens, UniProt P33261); assay: biochemical
[9] = molecular target: CYP2D6 (Homo sapiens, UniProt P10635); assay: biochemical
[10] = both sexes, human, single dose 50 mg, oral solution, fasted healthy subjects
[11] = both sexes, human, single dose 150 mg, oral solution, fasted healthy subjects
[12] = both sexes, human, single dose 300 mg, oral solution, fasted healthy subjects
[13] = both sexes, human, single dose 600 mg, oral solution, fasted healthy subjects
[14] = both sexes, human, single dose 1000 mg, oral solution, fasted healthy subjects
[15] = male, human, multiple dose phase, Day 1, 150 mg, oral solution
[16] = male, human, multiple dose phase, Day 1, 450 mg, oral solution
[17] = male, human, multiple dose phase, Day 1, 1000 mg, oral solution
[18] = multiple dose, 450 mg daily, Day 1
[19] = multiple dose, 450 mg daily, Day 11
[20] = multiple dose, 1000 mg daily, Day 1
[21] = multiple dose, 1000 mg daily, Day 11
[22] = single dose 50 mg, oral solution
[23] = single dose 150 mg, oral solution
[24] = single dose 300 mg, oral solution
[25] = single dose 600 mg, oral solution
[26] = single dose 1000 mg, oral solution

Sequence of CYP3A4 (P08684 whole entry): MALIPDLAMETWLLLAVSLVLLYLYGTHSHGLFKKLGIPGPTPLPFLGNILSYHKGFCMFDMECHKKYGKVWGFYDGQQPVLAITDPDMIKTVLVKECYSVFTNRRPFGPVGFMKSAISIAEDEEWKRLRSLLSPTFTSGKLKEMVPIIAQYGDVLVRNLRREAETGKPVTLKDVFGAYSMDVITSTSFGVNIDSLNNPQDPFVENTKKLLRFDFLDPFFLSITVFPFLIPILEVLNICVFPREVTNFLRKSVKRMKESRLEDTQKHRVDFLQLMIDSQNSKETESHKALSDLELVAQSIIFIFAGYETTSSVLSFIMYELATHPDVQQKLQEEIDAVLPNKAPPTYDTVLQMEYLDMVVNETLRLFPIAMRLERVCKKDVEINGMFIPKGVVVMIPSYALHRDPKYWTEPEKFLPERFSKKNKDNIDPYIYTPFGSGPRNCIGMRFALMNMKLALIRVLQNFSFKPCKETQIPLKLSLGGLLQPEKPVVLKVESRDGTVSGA
Sequence of CYP2C19 (P33261 whole entry): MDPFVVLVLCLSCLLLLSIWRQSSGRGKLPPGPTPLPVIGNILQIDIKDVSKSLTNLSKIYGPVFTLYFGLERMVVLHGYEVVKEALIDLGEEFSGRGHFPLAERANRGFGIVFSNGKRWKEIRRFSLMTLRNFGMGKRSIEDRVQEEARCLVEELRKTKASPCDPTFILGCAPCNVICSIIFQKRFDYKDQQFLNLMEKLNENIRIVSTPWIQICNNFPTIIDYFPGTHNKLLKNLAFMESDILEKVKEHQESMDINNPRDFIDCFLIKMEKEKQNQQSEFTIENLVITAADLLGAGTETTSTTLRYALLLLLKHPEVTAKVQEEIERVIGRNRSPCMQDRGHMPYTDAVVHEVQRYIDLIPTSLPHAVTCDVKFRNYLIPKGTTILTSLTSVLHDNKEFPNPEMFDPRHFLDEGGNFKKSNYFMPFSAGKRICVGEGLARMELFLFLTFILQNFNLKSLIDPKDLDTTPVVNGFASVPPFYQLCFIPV
Sequence of CYP2D6 (P10635 whole entry): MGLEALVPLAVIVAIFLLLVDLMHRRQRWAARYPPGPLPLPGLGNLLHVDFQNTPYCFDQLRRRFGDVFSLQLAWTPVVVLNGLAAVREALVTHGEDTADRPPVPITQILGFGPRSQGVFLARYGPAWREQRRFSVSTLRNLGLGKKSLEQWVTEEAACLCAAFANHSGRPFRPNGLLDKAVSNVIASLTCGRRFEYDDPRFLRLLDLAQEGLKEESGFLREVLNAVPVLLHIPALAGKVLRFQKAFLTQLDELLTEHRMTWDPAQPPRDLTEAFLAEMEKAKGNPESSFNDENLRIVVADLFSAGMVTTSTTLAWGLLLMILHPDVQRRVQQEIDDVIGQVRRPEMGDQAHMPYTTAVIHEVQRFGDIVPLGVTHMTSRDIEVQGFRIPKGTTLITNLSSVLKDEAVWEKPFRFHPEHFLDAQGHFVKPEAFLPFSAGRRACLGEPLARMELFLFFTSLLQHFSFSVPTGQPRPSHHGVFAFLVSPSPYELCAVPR

Question: Which results are given for COc1ccc(-c2ccc(Cn3c(CC(C)(C)C(=O)O)c(SC(C)(C)C)c4cc(OCc5ccccn5)ccc43)cc2)cn1 [sodium 3-[5-(pyridin-2-ylmethoxy)-3-(2-methyl-2-propylthio)-1-[4-(2-methoxypyridin-5-yl)benzyl]-indol-2-yl]-2,2-dimethyl-propionate]?
Answer: solubility ([1]; aqueous medium, aqueous buffer, about pH 7, read-out: aqueous solubility): < 5 µg/mL; solubility ([1]; basic media, pH 10, aqueous buffer, read-out: solubility in basic media): > 70000 µg/mL; solubility ([2]; aqueous with cosolvent or surfactant or cyclodextrin, 0.5% Methylcellulose/water): 9.3 mg/mL; solubility ([2]; organic solvent or mixture, Acetonitrile): 0.2 mg/mL; solubility ([2]; organic solvent or mixture, Ethanol): 17.1 mg/mL; solubility ([2]; organic solvent or mixture, Isopropanol): 1.1 mg/mL; solubility ([2]; organic solvent or mixture, Methanol): > 50 mg/mL; solubility ([2]; organic solvent or mixture, Propylene glycol): 13.4 mg/mL; solubility in words ([2]; acetonitrile): sparingly soluble; solubility in words ([2]; isopropanol): sparingly soluble; solubility in words ([2]; methanol): very soluble; AUCdose-adjusted ([3]; iv, 2 mg/kg): 6.0; AUC(0-inf) ([3]; female, Beagle, iv, 2 mg/kg): 11900 ng·h/mL; CLp ([3]; female, Beagle, iv, 2 mg/kg): 2.9 mL/min/kg; Cmax ([3]; female, Beagle, iv, 2 mg/kg): 3200 ng/mL; Tmax ([3]; female, Beagle, iv, 2 mg/kg): 0.017 h; Vd ([3]; female, Beagle, iv, 2 mg/kg): 0.4 L/kg; bioavailability ([3]; female, Beagle, iv, 2 mg/kg): 100%; half-life ([3]; female, Beagle, iv, 2 mg/kg): 7.7 h; Tmax ([3]; female, Beagle, po, 5 mg/kg): 1.7 h; AUC(0-t) [4, 10]: 5.4 ± 2.5 µM·h; Cmax ([4]; both sexes, human, single dose 50 mg, oral solution, fasted healthy subjects, read-out: Cmax (mM) AVE ± SD): 0.00065 ± 0.00032 mM; Tmax [4, 10]: 3 ± 0.8 h; half-life [4, 10]: 7.7 ± 0.3 h; AUC(0-t) [4, 11]: 15.9 ± 8.7 µM·h; Cmax ([4]; both sexes, human, single dose 150 mg, oral solution, fasted healthy subjects, read-out: Cmax (mM) AVE ± SD): 0.0018 ± 0.0011 mM; Tmax [4, 11]: 2.5 ± 0.5 h; half-life [4, 11]: 10 ± 2 h; AUC(0-t) [4, 12]: 25.8 ± 7.4 µM·h; Cmax ([4]; both sexes, human, single dose 300 mg, oral solution, fasted healthy subjects, read-out: Cmax (mM) AVE ± SD): 0.0031 ± 0.0014 mM; Tmax [4, 12]: 3.2 ± 1 h; half-life [4, 12]: 12.3 ± 3.1 h; AUC(0-t) [4, 13]: 54 ± 35.3 µM·h; Cmax ([4]; both sexes, human, single dose 600 mg, oral solution, fasted healthy subjects, read-out: Cmax (mM) AVE ± SD): 0.0081 ± 0.0053 mM; Tmax [4, 13]: 2 ± 0.6 h; half-life [4, 13]: 8.8 ± 1.3 h; AUC(0-t) [4, 14]: 85 ± 44 µM·h; Cmax ([4]; both sexes, human, single dose 1000 mg, oral solution, fasted healthy subjects, read-out: Cmax (mM) AVE ± SD): 0.013 ± 0.005 mM; Tmax [4, 14]: 3 ± 0.8 h; half-life [4, 14]: 7.6 ± 4.6 h; Cmax ([4]; both sexes, oral, profile that may be obtained from a single dose administration to a human, dose not stated, read-out: Cmax): ≤ 0.005 mM; AUC(0-t) [4, 15]: 11.3 ± 5 µM·h; Cmax ([4]; male, human, multiple dose phase, Day 1, 150 mg, oral solution, read-out: Cmax (mM) AVE ± SD): 0.0019 ± 0.0011 mM; Tmax [4, 15]: 2.5 ± 0.5 h; half-life [4, 15]: 9.2 ± 2 h; AUC(0-t) [4, 16]: 34.2 ± 7.9 µM·h; Cmax ([4]; male, human, multiple dose phase, Day 1, 450 mg, oral solution, read-out: Cmax (mM) AVE ± SD): 0.0047 ± 0.0022 mM; Tmax [4, 16]: 2.7 ± 0.5 h; half-life [4, 16]: 13.2 ± 3.9 h; AUC(0-t) [4, 17]: 127 ± 50 µM·h; Cmax ([4]; male, human, multiple dose phase, Day 1, 1000 mg, oral solution, read-out: Cmax (mM) AVE ± SD): 0.0144 ± 0.0051 mM; Tmax [4, 17]: 2.3 ± 0.5 h; half-life [4, 17]: 11.2 ± 5.1 h; LTB4 level at t = 24 hrs. (% of baseline) [5, 18]: 24 ± 6.7 % of baseline; LTB4 level at t = 24 hrs. (% of baseline) [5, 19]: 26 ± 7.4 % of baseline; LTB4 level at t = 24 hrs. (% of baseline) [5, 20]: 2.7 ± 1.1 % of baseline; LTB4 level at t = 24 hrs. (% of baseline) [5, 21]: 1.0 ± 0.6 % of baseline; LTB4 level at t = 24 hrs. (% of baseline) [5, 22]: 75 ± 15 % of baseline; LTB4 level at t = 24 hrs. (% of baseline) [5, 23]: 58 ± 18 % of baseline; LTB4 level at t = 24 hrs. (% of baseline) [5, 24]: 36 ± 6.5 % of baseline; LTB4 level at t = 24 hrs. (% of baseline) [5, 25]: 25 ± 8.7 % of baseline; LTB4 level at t = 24 hrs. (% of baseline) [5, 26]: 23 ± 12 % of baseline; LTE4 level at t = 24 hrs. (% of baseline) [6, 18]: 8.2 ± 4.3 % of baseline; LTE4 level at t = 24 hrs. (% of baseline) [6, 19]: 2.8 ± 0.9 % of baseline; LTE4 level at t = 24 hrs. (% of baseline) [6, 20]: 2.5 ± 0.6 % of baseline; LTE4 level at t = 24 hrs. (% of baseline) [6, 21]: 2.3 ± 0.6 % of baseline; LTE4 level at t = 24 hrs. (% of baseline) [6, 22]: 77 ± 26 % of baseline; LTE4 level at t = 24 hrs. (% of baseline) [6, 23]: 23 ± 10 % of baseline; LTE4 level at t = 24 hrs. (% of baseline) [6, 24]: 10 ± 5 % of baseline; LTE4 level at t = 24 hrs. (% of baseline) [6, 25]: 8 ± 3 % of baseline; LTE4 level at t = 24 hrs. (% of baseline) [6, 26]: 3 ± 0 % of baseline; IC50 [7]: > 50 µM; IC50 [8]: 22 µM; IC50 [9]: > 50 µM
